Each structure is given as a SMILES string.

What is called IC50 is the point on the concentration scale where inhibition reaches its midpoint. What is called melting point is the temperature of the solid-liquid transition.

The target of one data set is T1, human DGAT1 (Homo sapiens, UniProt O75907).
T1 construct: FLAG (N); made in house; host or cells: SF9 insect cells (baculovirus, pFastBac); total cell membranes used as the enzyme source
T1 sequence (O75907 1-488): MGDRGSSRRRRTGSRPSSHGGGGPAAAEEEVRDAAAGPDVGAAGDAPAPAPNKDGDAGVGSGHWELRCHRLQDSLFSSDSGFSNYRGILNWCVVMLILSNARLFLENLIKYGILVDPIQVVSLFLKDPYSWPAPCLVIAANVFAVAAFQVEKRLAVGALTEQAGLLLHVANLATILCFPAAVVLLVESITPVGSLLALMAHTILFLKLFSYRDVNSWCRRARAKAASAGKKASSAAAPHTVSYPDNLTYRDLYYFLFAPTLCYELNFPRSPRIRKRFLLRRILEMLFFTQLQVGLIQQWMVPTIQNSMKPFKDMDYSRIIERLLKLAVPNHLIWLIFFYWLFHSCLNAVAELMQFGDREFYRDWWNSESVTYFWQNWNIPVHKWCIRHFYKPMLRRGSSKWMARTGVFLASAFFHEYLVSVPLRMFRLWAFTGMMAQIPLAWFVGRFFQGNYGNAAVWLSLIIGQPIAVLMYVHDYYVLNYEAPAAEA
The data set is described as follows: DGAT1 FlashPlate inhibition assay with DGAT1 membrane preparations. Type of data set: biochemical. Particulars: IC50 values expressed in M; pIC50 = -logIC50; inhibition of DGAT1 activity. Summed up:
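Membranes from Sf9 cells expressing N-FLAG human DGAT1 were incubated 120 min at 37 °C with 50 μM DAG in PC/PS micelles and 8.4 μM [3H]-oleoylCoA in Tris pH 7.4, MgCl2, EDTA and 0.2% BSA. The reaction was stopped with N-ethylmaleimide, and triacylglycerol was read by FlashPlate radioluminescence and normalised to enzyme and no-enzyme controls.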

`CC(C)N(Cc1cc(Cl)c(NC(=O)N2CCN(c3ccc(NC(=O)c4cccc(N5CCCC5)c4)cc3)CC2)c(Cl)c1)C(C)C` [Compound 137] gave a melting point of 270.85 °C. The same compound showed an IC50 on human DGAT1 of 0.00417 µM.
With `O=C(Nc1ccc(N2CCN(C(=O)Oc3c(Cl)cccc3Cl)CC2)cc1)c1cccc(N2CCCC2)c1` [Compound 139], the melting point was determined as 212.69 °C. At human DGAT1, this compound had a concentration for half-maximal inhibition (IC50) of 0.00646 µM.
In turn, `O=C(Nc1ccc(N2CCN(C(=S)Nc3c(Cl)cccc3Cl)CC2)cc1)c1ccccc1-c1ccc(C(F)(F)F)cc1` [Compound 8] yielded a melting point of 224.5 °C. On human DGAT1, this compound had a concentration for half-maximal inhibition (IC50) of 0.214 µM.
In the case of `COC(=O)c1cccc(C(=O)Nc2ccc(N3CCN(C(=O)Nc4c(Cl)cc(CN5CCCC5)cc4Cl)CC3)cc2)c1` [Compound 140], the melting point was 247.52 °C. Besides, the IC50 against human DGAT1 is 0.0126 µM.
For `O=C(Nc1ccc(N2CCN(C(=O)Nc3c(Cl)cccc3Cl)CC2)cc1)c1ccccc1-c1ccc(C(F)(F)F)cc1` [Compound 9], the melting point was 289 °C. This compound showed an IC50 at human DGAT1 of 0.0302 µM.
Compound `CN1CCN(C(=O)Cc2cc(Cl)c(NC(=O)N3CCN(c4ccc(NC(=O)c5cccc(N6CCCC6)c5)cc4)CC3)c(Cl)c2)CC1` [Compound 136] yielded a melting point of 254.77 °C. For the same compound, the IC50 against human DGAT1 is 0.00182 µM.
Turning to `COc1ccccc1NC(=O)N1CCN(c2ccc(NC(=O)c3ccccc3-c3ccc(C(F)(F)F)cc3)cc2)CC1` [Compound 80], the IC50 at human DGAT1 was 5.5 µM.
With `O=C(Nc1ccc(C2CCN(C(=O)Nc3c(F)cc(F)cc3Br)CC2)cc1)c1ccccc1-c1ccc(C(F)(F)F)cc1` [Compound 114], on human DGAT1, it took 1.23 µM to reach half-maximal inhibition (IC50).
On human DGAT1, `O=C(Nc1ccc(N2CCN(C(=O)Nc3c(Cl)cccc3Cl)CC2)cc1)c1cccc(-n2ccnc2)c1` [Compound 23] had an IC50 of 0.0331 µM.
On the same count and under the same terms, the same measure for `O=C(Nc1ccc(N2CCN(C(=O)Nc3c(Cl)cccc3Cl)CC2)cc1)c1ccc(-c2ccccn2)cc1` [Compound 126]: 0.00955 µM; for `O=C(Nc1ccc(N2CCN(C(=O)Nc3c(Cl)cccc3Cl)CC2)cc1)c1ccccc1-c1nnn[nH]1` [Compound 32]: 3.31 µM; for `O=C(Nc1ccc(N2CCN(C(=O)NCCCc3ccccc3)CC2)cc1)c1ccccc1-c1ccc(C(F)(F)F)cc1` [Compound 71]: 3.55 µM.
`Cc1cc(C)c(NC(=O)N2CCN(c3ccc(NC(=O)c4ccccc4-c4ccc(C(F)(F)F)cc4)cc3)CC2)c(Br)c1` [Compound 103] showed a 50% inhibitory concentration (IC50) against human DGAT1 of 0.2 µM.

(Values after US9227935B2, “Piperidine/piperazine derivatives” (Janssen Pharmaceutica N.V., priority 2007, dated 2016).)
